Assay results: PubChem BioAssay (NCI)
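A five-concentration, 48-hour dose response in 96-well plates underlies each endpoint, interpolated linearly between surrounding concentrations. Definition used: TGI = concentration required for complete inhibition of growth.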

How the values were obtained:
Assay in all cases: inhibition of tumour cell growth, NCI panel, 48 h
[1] = system: 786-0 renal
[2] = system: A498 renal
[3] = system: A549 NSCLC
[4] = system: ACHN renal
[5] = system: BT-549 breast
[6] = system: CAKI-1 renal
[7] = system: COLO 205 colon
[8] = system: DU-145 prostate
[9] = system: EKVX NSCLC
[10] = system: HCC-2998 colon
[11] = system: HCT-116 colon
[12] = system: HCT-15 colon
[13] = system: HL-60(TB) leukemia
[14] = system: HOP-62 NSCLC
[15] = system: HS 578T breast
[16] = system: HT29 colon
[17] = system: IGROV1 ovarian
[18] = system: K-562 leukemia
[19] = system: KM12 colon
[20] = system: LOX IMVI melanoma
[21] = system: M14 melanoma
[22] = system: MALME-3M melanoma
[23] = system: MCF7 breast
[24] = system: MDA-MB-231 breast
[25] = system: MDA-MB-435
[26] = system: MDA-N
[27] = system: MOLT-4 leukemia
[28] = system: NCI-H226 lung
[29] = system: NCI-H23 lung
[30] = system: NCI-H460 lung
[31] = system: NCI-H522 lung
[32] = system: NCI/ADR-RES ovarian
[33] = system: OVCAR-3 ovarian
[34] = system: OVCAR-4 ovarian
[35] = system: OVCAR-5 ovarian
[36] = system: OVCAR-8 ovarian
[37] = system: PC-3 prostate
[38] = system: RPMI-8226 leukemia
[39] = system: RXF 393 renal
[40] = system: SF-268 CNS
[41] = system: SF-295 CNS
[42] = system: SF-539 CNS
[43] = system: SK-MEL-2 melanoma
[44] = system: SK-MEL-28 melanoma
[45] = system: SK-MEL-5 melanoma
[46] = system: SK-OV-3 ovarian
[47] = system: SN12C renal
[48] = system: SNB-19 CNS
[49] = system: SNB-75 CNS
[50] = system: SW-620 colon
[51] = system: T-47D breast
[52] = system: TK-10 renal
[53] = system: U251 CNS
[54] = system: UACC-257 melanoma
[55] = system: UACC-62 melanoma
[56] = system: UO-31 renal
[57] = system: CCRF-CEM leukemia
[58] = system: HOP-92 NSCLC
[59] = system: SR leukemia

Measured: TGI

C/C(CC/C(C)=N/O)=N\O
not listed: [57] | [58] | [59]
> 100 µM: all other assays above

O=S(=O)(O)c1c(Cl)cc(O)c2ncccc12
not listed: [13] | [15] | [22] | [31] | [40] | [46] | [52]
> 100 µM: all other assays above
